Measured values: PubChem BioAssay (NCI)
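These data come from cells grown in 96-well plates and exposed to compound for 48 hours at five concentrations. Abbreviation: GI50, concentration required for 50% inhibition of growth. TGI: concentration producing complete growth inhibition.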

test system: UO-31 renal; assay: NCI anticancer screen, dose series, 48 h

| SMILES | GI50 [nM] | TGI [µM] |
| --- | --- | --- |
| NC1CCCC[C@H]1N.N[C@@H]1CCCC[C@@H]1N.O=C(P(=O)([O-])[O-])P(=O)([O-])[O-].[Pt+4].[Pt+4] | > 100000 | > 100 |
| CN1CCc2c(Sc3ccc(C(=O)NO)cc3)c3ccccc3n2C1 | 2330 | 14.9 |
| O=C(CSc1nnc(-c2ccccc2NC(=O)C(F)(F)F)c(=O)[nH]1)NC(=O)Nc1ccccc1 | – | > 100 |
| COc1ccc(C(=O)C(CO)Oc2ccccc2OC)cc1OC (centres undefined) | – | > 100 |

test system: EKVX NSCLC; assay: NCI anticancer screen, dose series, 48 h

| SMILES | TGI [µM] | GI50 [µM] |
| --- | --- | --- |
| COc1ccccc1/C=C/c1cnccn1 | > 10 | – |
| CC(C)c1ccccc1S(=O)c1ccccc1C(C)(C)O (centres undefined) | > 100 | – |
| CC(C)(C)C(=O)/C=C/c1ccc(Oc2ccccc2)cc1 | 39.1 | – |
| CC1=C(C(=O)Nc2c(C)cccc2C)C(c2ccccc2Cl)C(C(=O)Nc2c(C)cccc2C)=C(C)N1 | > 100 | – |
| Cc1cn2c(/C=C3/C(=O)Nc4ccccc43)c(-c3ccc(Cl)cc3)nc2s1 | 18.8 | 8.73 |
| O=C1CSC(Cc2nc3ccccc3[nH]2)=N1 | 75.6 | – |
| COc1ccccc1NC(=O)C1=C(C)NC(C)=C(C(=O)Nc2ccccc2OC)C1c1ccc([N+](=O)[O-])cc1 | > 100 | – |
| CCOC(=O)[C@H](CCCNC(=O)OC(C)(C)C)NCc1ccc(OC)c(OC)c1 | > 100 | – |
| O=C(/C=C/c1c(O)ccc2ccccc12)c1ccc2ccccc2c1 | > 100 | – |
| O=[N+]([O-])c1ccc(-n2nnc(C3=NCCCN3)c2-c2ccc(Cl)cc2)cc1 | > 100 | – |
| COC(=O)C12C3C4C5(C(=O)OC)C(C1C35C(=O)N(C(C)C)C(C)C)C42C(=O)N(C(C)C)C(C)C (centres undefined) | > 50 | – |
| N#CC(C#N)=c1[nH]c2cccc3c2-c2c(cccc2c3=C(C#N)C#N)[nH]1 | > 100 | – |
| C#C[C@]1(O)CC[C@H]2[C@@H]3CC=C4c5sc(Nc6ccccc6)nc5CC[C@]4(C)[C@H]3CC[C@@]21C | 13.8 | 2.83 |
| COc1cc(NC(C)CCCN)c2nccc(C)c2c1OC (centres undefined) | 33.8 | 18 |
| COC(=O)/C=C/C1C(C(=O)OC)C2(C(=O)OC)CCC1(C(=O)OC)N2 (centres undefined) | > 100 | – |
| CSC1(CC(=O)N(C)C)C(=O)Nc2ccccc21 (centres undefined) | > 100 | – |
| N#CC(C(=O)/C(=N/Nc1nc(=S)[nH]n1N)C(C#N)c1ccccc1)c1ccccc1 (centres undefined) | > 100 | – |
| N#CC(/C(=N/NC(=O)C(=O)NN)C(=O)NC12CC3CC(CC(C3)C1)C2)c1ccccc1 (centres undefined) | > 100 | – |

| SMILES | TGI [µM] | GI50 [µM] |
| --- | --- | --- |
| CC(=O)OCC1OC([S-])C(OC(C)=O)C(OC(C)=O)C1OC(C)=O.CC[PH+](CC)CC.CC[PH+](CC)CC.[Au].[Au] (centres undefined) | 0.921 | 0.405 |
| Cc1cc(C)n(CCNCCn2nc(C)cc2C)n1 | > 100 | – |
| COc1cc2c(cc1OCc1ccccc1)CNCC2 | > 100 | – |
| O=C(CN1CCCCC1)N1CCc2c([nH]c3ccccc23)C1c1cccnc1 (centres undefined) | > 100 | – |
| O/N=C\c1c(O)ccc2ccccc12 | > 100 | – |
| CCCCCCCCCc1cc(=O)c2c(O)cccc2o1 | > 100 | – |
| O=C(C[n+]1ccccc1)NNC(=O)/C(=C/c1ccc2c(c1)OCO2)NC(=O)c1ccccc1 | > 100 | – |
| O=S(O)CCCCSSCc1ccccc1CSSCCCCS(=O)O | > 100 | – |
| Clc1ccc(-c2c(C3=NCCN3)nnn2-c2ccc(Cl)cc2)cc1 | > 100 | – |
| CC(C)(C)N1CC2(CCCCC2)C1=O | > 100 | – |
| O=C(CCCN1CC=C(n2c(=O)[nH]c3ccccc32)CC1)c1ccc(F)cc1 | 80.1 | 16.7 |
| CCN(CC)CC(C)(C)C(=O)/C=C/c1ccc(Cl)c(Cl)c1 | 3.1 | 1.69 |
| NC1CCCC[C@H]1N.N[C@@H]1CCCC[C@@H]1N.O=C(P(=O)([O-])[O-])P(=O)([O-])[O-].[Pt+4].[Pt+4] | > 100 | > 100 |
| O=C(O)Cc1c(O)ccc2ccccc12 | > 100 | – |
| O=C(CSc1nnc(-c2ccccc2NC(=O)C(F)(F)F)c(=O)[nH]1)NC(=O)Nc1ccccc1 | > 100 | – |
| N#CC1Nc2ccccc2[C@@H](O)C1O (some centres undefined) | > 100 | – |
| CCOC(=O)c1[nH]c(COC(C)=O)c(CCCOC(C)=O)c1CCCOC(C)=O | > 100 | – |
| COc1ccc(C(=O)C(CO)Oc2ccccc2OC)cc1OC (centres undefined) | > 100 | – |

test system: SNB-19 CNS; assay: NCI anticancer screen, dose series, 48 h

| SMILES | TGI [µM] | GI50 [nM] |
| --- | --- | --- |
| COc1ccccc1/C=C/c1cnccn1 | > 10 | – |
| CC(=O)Oc1ccccc1C(=O)N=C1[Se]CCN1C(=O)c1ccccc1OC(C)=O | 4.31 | 1230 |
| CC(C)c1ccccc1S(=O)c1ccccc1C(C)(C)O (centres undefined) | > 100 | – |
| CC(C)(C)C(=O)/C=C/c1ccc(Oc2ccccc2)cc1 | 68.1 | – |
| CC1=C(C(=O)Nc2c(C)cccc2C)C(c2ccccc2Cl)C(C(=O)Nc2c(C)cccc2C)=C(C)N1 | > 100 | – |
| Cc1cn2c(/C=C3/C(=O)Nc4ccccc43)c(-c3ccc(Cl)cc3)nc2s1 | 13.5 | 7010 |
| O=C1CSC(Cc2nc3ccccc3[nH]2)=N1 | 80.8 | – |
| COc1ccccc1NC(=O)C1=C(C)NC(C)=C(C(=O)Nc2ccccc2OC)C1c1ccc([N+](=O)[O-])cc1 | > 100 | – |
| CCOC(=O)[C@H](CCCNC(=O)OC(C)(C)C)NCc1ccc(OC)c(OC)c1 | > 100 | – |
| O=C(/C=C/c1c(O)ccc2ccccc12)c1ccc2ccccc2c1 | > 100 | – |
| O=[N+]([O-])c1ccc(-n2nnc(C3=NCCCN3)c2-c2ccc(Cl)cc2)cc1 | > 100 | – |
| COC(=O)C12C3C4C5(C(=O)OC)C(C1C35C(=O)N(C(C)C)C(C)C)C42C(=O)N(C(C)C)C(C)C (centres undefined) | > 50 | – |
| N#CC(C#N)=c1[nH]c2cccc3c2-c2c(cccc2c3=C(C#N)C#N)[nH]1 | > 100 | – |
| C#C[C@]1(O)CC[C@H]2[C@@H]3CC=C4c5sc(Nc6ccccc6)nc5CC[C@]4(C)[C@H]3CC[C@@]21C | 7.16 | 1990 |
| COC(=O)/C=C/C1C(C(=O)OC)C2(C(=O)OC)CCC1(C(=O)OC)N2 (centres undefined) | > 100 | – |
| CSC1(CC(=O)N(C)C)C(=O)Nc2ccccc21 (centres undefined) | > 100 | – |
| N#CC(C(=O)/C(=N/Nc1nc(=S)[nH]n1N)C(C#N)c1ccccc1)c1ccccc1 (centres undefined) | > 100 | – |
| N#CC(/C(=N/NC(=O)C(=O)NN)C(=O)NC12CC3CC(CC(C3)C1)C2)c1ccccc1 (centres undefined) | > 100 | – |
| CC(=O)OCC1OC([S-])C(OC(C)=O)C(OC(C)=O)C1OC(C)=O.CC[PH+](CC)CC.CC[PH+](CC)CC.[Au].[Au] (centres undefined) | 0.552 | 197 |

| SMILES | TGI [µM] | GI50 [nM] |
| --- | --- | --- |
| Cc1cc(C)n(CCNCCn2nc(C)cc2C)n1 | > 100 | – |
| COc1cc2c(cc1OCc1ccccc1)CNCC2 | > 100 | – |
| O=C(CN1CCCCC1)N1CCc2c([nH]c3ccccc23)C1c1cccnc1 (centres undefined) | > 100 | – |
| O/N=C\c1c(O)ccc2ccccc12 | > 100 | – |
| CCCCCCCCCc1cc(=O)c2c(O)cccc2o1 | > 100 | – |
| O=C(C[n+]1ccccc1)NNC(=O)/C(=C/c1ccc2c(c1)OCO2)NC(=O)c1ccccc1 | > 100 | – |
| Cc1c(C2Nc3ccccc3C2C)[nH]c2ccccc12 (centres undefined) | 38 | 13800 |
| O=S(O)CCCCSSCc1ccccc1CSSCCCCS(=O)O | > 100 | – |
| Clc1ccc(-c2c(C3=NCCN3)nnn2-c2ccc(Cl)cc2)cc1 | > 100 | – |
| CC(C)(C)N1CC2(CCCCC2)C1=O | > 100 | – |
| O=C(CCC(=O)Nc1cccc(Cl)c1)CC(=O)c1ccc(Cl)cc1 | > 100 | – |
| CCN(CC)CC(C)(C)C(=O)/C=C/c1ccc(Cl)c(Cl)c1 | 3.54 | 1820 |
| NC1CCCC[C@H]1N.N[C@@H]1CCCC[C@@H]1N.O=C(P(=O)([O-])[O-])P(=O)([O-])[O-].[Pt+4].[Pt+4] | > 100 | > 100000 |
| O=C(O)Cc1c(O)ccc2ccccc12 | > 100 | – |
| CN1CCc2c(Sc3ccc(C(=O)NO)cc3)c3ccccc3n2C1 | 6.79 | 2120 |
| O=C(CSc1nnc(-c2ccccc2NC(=O)C(F)(F)F)c(=O)[nH]1)NC(=O)Nc1ccccc1 | > 100 | – |
| CCOC(=O)c1[nH]c(COC(C)=O)c(CCCOC(C)=O)c1CCCOC(C)=O | > 100 | – |
| COc1ccc(C(=O)C(CO)Oc2ccccc2OC)cc1OC (centres undefined) | > 100 | – |

test system: COLO 205 colon; assay: NCI anticancer screen, dose series, 48 h

| SMILES | TGI [µM] | GI50 [µM] |
| --- | --- | --- |
| COc1ccccc1/C=C/c1cnccn1 | > 10 | – |
| CC(=O)Oc1ccccc1C(=O)N=C1[Se]CCN1C(=O)c1ccccc1OC(C)=O | 4.07 | 1.84 |
| CC(C)c1ccccc1S(=O)c1ccccc1C(C)(C)O (centres undefined) | > 100 | – |
| CC1=C(C(=O)Nc2c(C)cccc2C)C(c2ccccc2Cl)C(C(=O)Nc2c(C)cccc2C)=C(C)N1 | > 100 | – |
| Cc1cn2c(/C=C3/C(=O)Nc4ccccc43)c(-c3ccc(Cl)cc3)nc2s1 | 22.2 | 10.4 |
| O=C1CSC(Cc2nc3ccccc3[nH]2)=N1 | 50 | – |
| COc1ccccc1NC(=O)C1=C(C)NC(C)=C(C(=O)Nc2ccccc2OC)C1c1ccc([N+](=O)[O-])cc1 | > 100 | – |
| CCOC(=O)[C@H](CCCNC(=O)OC(C)(C)C)NCc1ccc(OC)c(OC)c1 | > 100 | – |
